Experimental data taken from patent US10941137B2, “Difluoromethyl-phenyl triazoles” (Boehringer Ingelheim International GmbH, priority 2018, dated 2021).

Columns and labels:
[1] = Metabolic stability in human liver microsomes (Human MST); format: in vitro ADME; conditions: pooled human liver microsomes, pH 7.6; human liver microsomes 1 mg/mL, 1 μM compound, NADPH 1 mM, 37° C.; read-out: Human MST t1/2
Procedure: Assessment of Metabolic Stability in Human Liver Microsomes (Human MST) The metabolic stability of the compounds according to the invention may be investigated as follows: The metabolic degradation of the test compound is assayed at 37° C. with pooled human liver microsomes. The final incubation volume of 100 μL per time point contains TRIS buffer pH 7.6 at room temperature (0.1 M), MgCl2 (5 mM), microsomal protein (1 mg/mL) and the test compound at a final concentration of 1 μM. Following a short pre-incubation period at 37° C., the reactions are initiated by addition of beta-nicotinamide adenine dinucleotide phosphate, reduced form (NADPH, 1 mM), and terminated by transferring an aliquot into solvent after different time points. After centrifugation (10000 g, 5 min), an aliquot of the supernatant is assayed by LCMS/MS for the amount of parent compound. The half-life (t½) is determined by the slope of the semi-logarithmic plot of the concentration-time profile.

[2] = molecular target: T1, human GABAA α5β3γ2s receptor (Homo sapiens, UniProt P18507+P31644); assay: Assay A: in vitro inhibition of 3H-flumazenil binding, HEK cells expressing human GABAA α5β3γ2s receptor; conditions: 3H-flumazenil 1 nM, HEK-293 membranes, 40 min at 2° C.; Ki from IC50 by Cheng and Prusoff
T1 sequence (P18507 1-475): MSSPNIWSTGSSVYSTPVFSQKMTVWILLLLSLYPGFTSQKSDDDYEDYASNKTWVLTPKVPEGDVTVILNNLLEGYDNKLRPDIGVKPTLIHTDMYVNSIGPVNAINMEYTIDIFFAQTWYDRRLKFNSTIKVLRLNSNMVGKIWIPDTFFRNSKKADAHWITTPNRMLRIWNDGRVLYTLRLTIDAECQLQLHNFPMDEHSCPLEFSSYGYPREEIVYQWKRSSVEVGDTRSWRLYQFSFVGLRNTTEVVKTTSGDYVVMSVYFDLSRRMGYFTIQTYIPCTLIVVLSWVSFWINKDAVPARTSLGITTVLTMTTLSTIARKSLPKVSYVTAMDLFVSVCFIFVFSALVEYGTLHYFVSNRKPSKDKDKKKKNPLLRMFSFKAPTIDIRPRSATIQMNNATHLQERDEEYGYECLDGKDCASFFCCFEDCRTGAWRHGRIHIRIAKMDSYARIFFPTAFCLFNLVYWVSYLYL
T1 sequence (P31644 1-462): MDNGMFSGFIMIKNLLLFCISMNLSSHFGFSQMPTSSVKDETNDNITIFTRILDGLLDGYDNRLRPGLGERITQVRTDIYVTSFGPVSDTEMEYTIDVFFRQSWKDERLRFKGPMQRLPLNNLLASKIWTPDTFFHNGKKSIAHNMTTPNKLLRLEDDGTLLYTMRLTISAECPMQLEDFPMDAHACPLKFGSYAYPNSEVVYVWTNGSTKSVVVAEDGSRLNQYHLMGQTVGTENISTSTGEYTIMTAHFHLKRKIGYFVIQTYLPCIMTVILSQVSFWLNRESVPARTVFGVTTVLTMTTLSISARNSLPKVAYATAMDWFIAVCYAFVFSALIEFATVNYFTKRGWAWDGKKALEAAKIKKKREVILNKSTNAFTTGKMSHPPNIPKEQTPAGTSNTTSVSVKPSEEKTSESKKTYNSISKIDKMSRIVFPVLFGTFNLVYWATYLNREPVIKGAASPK
Procedure: HEK-293 cell lines with stable expression of recombinant human GABAA α5β3γ2s receptors (plasmid H46/E9/B10) are seeded in T175 polystyrene flasks or roller bottles (1700 cm^2, Fisher Scientific CCI-431191), and cultured (37 C, 5% CO˜) in Dulbecco's Modified Eagle Medium (DMEM) with GlutaMAX™ supplemented with 10% fetal bovine serum and one or both of the following antibiotics: hygromycin B ([…]; γ2 subunit) or G418 (0.5 mg/ml; […]).
When the cultures reach confluency, the DMEM is removed and the cells are washed (10 ml for T175 flasks; 50 ml for roller bottles) once in Dulbecco's Phosphate Buffered Saline (DPBS). Following addition of DPBS to the cultures (10 ml for T175 flasks; 100 ml for roller bottles) for approximately 5 min cells are easily detached from the surface by shaking or tapping the flask gently. The cell suspension is transferred to Falcon tubes and centrifuged at 23,500×g for 10 min at 2° C. The pellet is washed once in 15 ml Tris-citrate buffer (50 mM, pH 7.1) using an Ultra-Turrax homogenizer and centrifuged at 2° C. for 10 min at 27,000×g. The washed pellet is re-suspended in 15 ml Tris-citrate buffer and frozen at −80° C. until the day of the binding experiment.
On the day of the experiment the cell membrane preparation is thawed and centrifuged at 2° C. for 10 min at 27,000×g. The pellet is re-suspended, using an Ultra-Turrax homogenizer in Tris-citrate buffer, to 15-50 µg protein per assay and then used for binding assays.
Non-specific binding is determined using clonazepam (1 μM, final concentration).
All dilutions of test compounds and incubation of assay are performed in glass vials/96-vial plates. […] Compounds are dissolved in 100% DMSO (10 mM stock), diluted in 48% ethanol-water, and tested in triplicate in serial 1:3 or 1:10 dilutions. When screening large numbers of compounds only one concentration of each compound is tested in single wells. Reference compounds are not included routinely, but for each experiment performed total and nonspecific binding is compared to data obtained during validation of the assay.
Binding is either terminated by rapid filtration onto
1) Whatman GF/C glass fibre filters using a Brandel Cell harvester, followed by 5 washes with 1 ml ice-cold buffer or onto 2) UniFilter GF/C glass fibre filter plates using a Tomtec cell harvester, followed by washing with approximately 5 ml ice-cold buffer.
The amount of radioactivity on the filters is determined by conventional liquid scintillation counting using a
1) Tri-Garb™ counter (PerkinElmer Life and Analytical Sciences) for separate large filters or
2) Topcount™ counter (PerkinElmer Life and Analytical Sciences) for 96-well filter plates. Specific binding is total binding minus non-specific binding.
For screening purposes n is set to 1. The IC50 value is calculated from the concentration response curves by the non-linear regression method using the curve-fitting program GraphPad Prism. […]

Row | Compound | half-life at 1 μM [1] [h] | Ki [2] [nM]
1 | Cc1nnn(-c2ccc(C(F)F)cc2)c1COc1ccc(-c2ccnc(O)c2)nn1 [Example 2, 4-[6-({1-[4-(difluoromethyl)phenyl]-4-methyl-1H-1,2,3-triazol-5-yl}methoxy)pyridazin-3-yl]pyridin-2-ol] | > 2.17 | 0.086
2 | COc1ncc(-c2ccc(OCc3c(C)nnn3-c3ccc(C(F)F)cc3)nn2)cn1 [Example 3] | – | 0.16
3 | Cc1nnn(-c2ccc(C(F)F)cc2)c1COc1ccc(-c2cnc(OCC(C)(C)O)nc2)nn1 [Example 4] | > 2.17 | 0.87
4 | Cc1nnn(-c2ccc(C(F)F)cc2)c1COc1ccc(-c2cnn(C)c2)nn1 [Example 5] | > 2.17 | 0.11
5 | Cc1ncc(-c2ccc(OCc3c(C)nnn3-c3ccc(C(F)F)cc3)nn2)o1 [Example 6] | > 2.17 | 0.11
6 | CCn1cc(-c2ccc(OCc3c(C)nnn3-c3ccc(C(F)F)cc3)nn2)cn1 [Example 7] | – | 0.032
7 | Cc1nnn(-c2ccc(C(F)F)cc2)c1COc1ccc(-c2cncc(-n3ccnc3)c2)nn1 [Example 8] | 1.22 | 0.055
8 | Cc1nnn(-c2ccc(C(F)F)cc2)c1COc1ccc(-c2cnn(C3CC3)c2)nn1 [Example 9] | > 2.17 | 0.25
9 | Cc1cc(-c2ccc(OCc3c(C)nnn3-c3ccc(C(F)F)cc3)nn2)cnn1 [Example 11] | > 2.17 | 0.058
10 | Cc1n[nH]c(C)c1-c1ccc(OCc2c(C)nnn2-c2ccc(C(F)F)cc2)nn1 [Example 12, 3-({1-[4-(difluoromethyl)phenyl]-4-methyl-1H-1,2,3-triazol-5-yl}methoxy)-6-(3,5-dimethyl-1H-pyrazol-4-yl)pyridazine] | 0.417 | 0.9
11 | CNC(=O)c1cn(-c2ccc(OCc3c(C)nnn3-c3ccc(C(F)F)cc3)nn2)cn1 [Example 14] | > 2.17 | 0.071
12 | Cc1nnn(-c2ccc(C(F)F)cc2)c1COc1ccc(-n2cnc(S(C)(=O)=O)c2)nn1 [Example 19] | > 2.17 | 0.38
13 | Cc1nnn(-c2ccc(C(F)F)cc2)c1COc1ccc(-c2cncnc2)nn1 [Example 22] | > 2.17 | 0.11
14 | Cc1nnn(-c2ccc(C(F)F)cc2)c1COc1ccc(-n2ccc(C(F)(F)F)n2)nn1 [Example 24] | 0.517 | 0.25
15 | Cc1nnn(-c2ccc(C(F)F)cc2)c1COc1ccc(-n2cc(C(F)(F)F)cn2)nn1 [Example 25] | > 2.17 | 0.35
16 | COC(=O)c1cn(-c2ccc(OCc3c(C)nnn3-c3ccc(C(F)F)cc3)nn2)cn1 [Example 29] | 0.433 | 0.063
17 | Cc1nnn(-c2ccc(C(F)F)cc2)c1COc1ccc(-n2cnc(CN)c2)nn1 [Example 35, {1-[6-({1-[4-(difluoromethyl)phenyl]-4-methyl-1H-1,2,3-triazol-5-yl}methoxy)pyridazin-3-yl]-1H-imidazol-4-yl}methanamine] | > 2.17 | 0.057
18 | Cc1nnn(-c2ccc(C(F)F)cc2)c1COc1ccc(-n2cnc(C[N+](C)(C)C)c2)nn1.O=C([O-])C(F)(F)F [Example 36, ({1-[6-({1-[4-(difluoromethyl)phenyl]-4-methyl-1H-1,2,3-triazol-5-yl}methoxy)pyridazin-3-yl]-1H-imidazol-4-yl}methyl)trimethylazanium trifluoroacetate] | > 2.17 | 0.12

Next, values leading:

Row | half-life at 1 μM [1] [h] | Ki [2] [nM] | Compound
19 | > 2.17 | 0.11 | Cc1nnn(-c2ccc(C(F)F)cc2)c1COc1ccc(-n2cnc(C(F)F)c2)nn1 [Example 15]
20 | 0.167 | 0.089 | Cc1nnn(-c2ccc(C(F)F)cc2)c1COc1ccc(-n2cnc(C=O)c2)nn1 [Example 17]
21 | > 2.17 | 0.056 | Cc1nnn(-c2ccc(C(F)F)cc2)c1COc1ccc(-n2cnc(Cl)c2)nn1 [Example 18]
22 | – | 0.009 | Cc1nnn(-c2ccc(C(F)F)cc2)c1COc1ccc(-n2ccc(C#N)n2)nn1 [Example 20]
23 | 0.617 | 0.047 | Cc1nnn(-c2ccc(C(F)F)cc2)c1COc1ccc(-n2ccc(C(N)=O)n2)nn1 [Example 21]
24 | > 2.17 | 0.12 | Cc1nnn(-c2ccc(C(F)F)cc2)c1COc1ccc(-n2cc3c(n2)CCNC3=O)nn1 [Example 26]
25 | > 2.17 | 0.036 | Cc1nnn(-c2ccc(C(F)F)cc2)c1COc1ccc(-n2cnc(C(N)=O)c2)nn1 [Example 27, 1-[6-({1-[4-(difluoromethyl)phenyl]-4-methyl-1H-1,2,3-triazol-5-yl}methoxy)pyridazin-3-yl]-1H-imidazole-4-carboxamide]
26 | > 2.17 | 0.21 | Cc1nnn(-c2ccc(C(F)F)cc2)c1COc1ccc(-n2cc(C#N)cn2)nn1 [Example 31]
27 | > 2.17 | 0.039 | CC(=O)c1cn(-c2ccc(OCc3c(C)nnn3-c3ccc(C(F)F)cc3)nn2)cn1 [Example 32]
28 | > 2.17 | 0.163 | Cc1ncn(-c2ccc(OCc3c(C)nnn3-c3ccc(C(F)F)cc3)nn2)n1 [Example 33]
29 | > 2.17 | 0.81 | Cc1nnn(-c2ccc(C(F)F)cc2)c1COc1ccc(-n2cnc(C(=O)O)c2)nn1 [Example 37, 1-[6-({1-[4-(difluoromethyl)phenyl]-4-methyl-1H-1,2,3-triazol-5-yl}methoxy)pyridazin-3-yl]-1H-imidazole-4-carboxylic acid]
30 | > 2.17 | 0.2 | Cc1nnn(-c2ccc(C(F)F)cc2)c1COc1ccc(-n2cnc(CO)c2)nn1 [Example 38, {1-[6-({1-[4-(difluoromethyl)phenyl]-4-methyl-1H-1,2,3-triazol-5-yl}methoxy)pyridazin-3-yl]-1H-imidazol-4-yl}methanol]
